We go through 24 compounds from US10287301B2 (Achillion Pharmaceuticals, Inc., priority 2015, dated 2019).

Molecules are shown by their SMILES.

In general, IC50 refers to the point on the concentration scale where inhibition reaches its midpoint.

The target of the first assay is Human Factor D (Homo sapiens (Human), UniProt P00746). Put plainly: Human Factor D Assay. It is filed as biochemical.
Sequence of Human Factor D (P00746 26-253): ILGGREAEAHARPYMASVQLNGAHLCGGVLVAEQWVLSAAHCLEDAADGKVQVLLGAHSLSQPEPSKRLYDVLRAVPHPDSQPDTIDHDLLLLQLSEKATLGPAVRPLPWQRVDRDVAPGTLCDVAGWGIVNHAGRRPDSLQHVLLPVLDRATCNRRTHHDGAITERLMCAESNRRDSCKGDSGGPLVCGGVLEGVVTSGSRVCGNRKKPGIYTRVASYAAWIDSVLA
Conditions: not given
The gist of the method: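 Thioesterase activity monitored with Z-L-Lys-SBzl plus Ellman's reagent (DTNB), each 100 μM final, after 5 min room-temperature compound preincubation of 80 nM human serum Factor D in pH 7.5 Tris (50 mM)/1M NaCl.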
In the case of `Cc1cccc(NC(=O)[C@@H]2[C@H]3CC[C@H](C3)N2C(=O)Cn2cc(C(N)=O)c3cc(-c4n[nH]c5ccsc45)ccc32)n1` [Compound 704, 1-(2-((1R,3S,4S)-3-((6-Methylpyridin-2-yl)carbamoyl)-2-azabicyclo[2.2.1]heptan-2-yl)-2-oxoethyl)-5-(1H-thieno[3,2-c]pyrazol-3-yl)-1H-indole-3-carboxamide], the IC50 is over 10000 nM.

Still in this assay, the particulars now being: Human Factor D, Table 3; read-out: IC50.
As to `CC(=O)c1nn(CC(=O)N2C[C@H](F)C[C@H]2C(=O)Nc2ccn(CC(F)(F)F)n2)c2ccc(-c3cnc4cc(C)nn4c3)cc12` [Compound 678, (2S,4R)-1-(2-(3-acetyl-5-(2-methylpyrazolo[1,5-a]pyrimidin-6-yl)-1H-indazol-1-yl)acetyl)-4-fluoro-N-(1-(2,2,2-trifluoroethyl)-1H-pyrazol-3-yl)pyrrolidine-2-carboxamide], the IC50 is under 1000 nM.

With `COC(=O)Cc1cccc(NC(=O)[C@@H]2C[C@@H](F)CN2C(=O)Cn2nc(C(C)=O)c3cc(-c4cnc5cc(C)nn5c4)ccc32)n1` [Compound 679, methyl 2-(6-((2S,4R)-1-(2-(3-acetyl-5-(2-methylpyrazolo[1,5-a]pyrimidin-6-yl)-1H-indazol-1-yl)acetyl)-4-fluoropyrrolidine-2-carboxamido)pyridin-2-yl)acetate], the IC50 is under 1000 nM.

In the case of `CC(=O)c1nn(CC(=O)N2C[C@H](F)C[C@H]2C(=O)Nc2cccc(C(C)C)n2)c2ccc(-c3cnc4cc(C)nn4c3)cc12` [Compound 680, (2S,4R)-1-(2-(3-acetyl-5-(2-methylpyrazolo[1.5-a]pyrimidin-6-yl)-1H-indazol-1-yl)acetyl)-4-fluoro-N-(6-isopropylpyridin-2-yl)pyrrolidine-2-carboxamide], the IC50 is under 1000 nM.

For the compound `CCc1cc2ncc(-c3ccc4c(c3)c(C(C)=O)nn4CC(=O)N3C[C@H](F)C[C@H]3C(=O)Nc3cccc(Br)n3)cn2n1` [Compound 681, (2S,4R)-1-(2-(3-Acetyl-5-(2-ethylpyrazolo[1,5-a]pyrimidin-6-yl)-1H-indazol-1-yl)acetyl)-N-(6-bromopyridin-2-yl)-4-fluoropyrrolidine-2-carboxamide], the half-maximal inhibitory concentration (IC50) was under 1000 nM.

`CC(=O)c1nn(CC(=O)N2C[C@H](F)C[C@H]2C(=O)Nc2cccc(Br)n2)c2ccc(-c3cnc4cc(C(C)(C)C)nn4c3)cc12` [Compound 682, (2S,4R)-1-(2-(3-Acetyl-5-(2-(tert-butyl)pyrazolo[1,5-a]pyrimidin-6-yl)-1H-indazol-1-yl)acetyl)-N-(6-bromopyridin-2-yl)-4-fluoropyrrolidine-2-carboxamide]: the 50% inhibitory concentration (IC50) was under 1000 nM.

Take `CC(=O)c1nn(CC(=O)N2C[C@H](F)C[C@H]2C(=O)Nc2cccc(Br)n2)c2ccc(-c3cnc4cc(F)nn4c3)cc12` [Compound 683, (2S,4R)-1-(2-(3-Acetyl-5-(2-fluoropyrazolo[1,5-a]pyrimidin-6-yl)-1H-indazol-1-yl)acetyl)-N-(6-bromopyridin-2-yl)-4-fluoropyrrolidine-2-carboxamide]: the IC50 was under 1000 nM.

For the compound `CC(=O)c1nn(CC(=O)N2C[C@H](F)C[C@H]2C(=O)Nc2cccc(Br)n2)c2ccc(-c3cnc4cc(C(F)(F)F)nn4c3)cc12` [Compound 684, (2S,4R)-1-(2-(3-Acetyl-5-(2-(trifluoromethyl)pyrazolo[1,5-a]pyrimidin-6-yl)-1H-indazol-1-yl)acetyl)-N-(6-bromopyridin-2-yl)-4-fluoropyrrolidine-2-carboxamide], the IC50 is under 1000 nM.

On to `CC(=O)c1cn(CC(=O)N2C[C@H](F)C[C@H]2C(=O)NCc2ccccc2)c2ccc(-c3cnc4cc(C)nn4c3)cc12` [Compound 685, (2S,4R)-1-(2-(3-Acetyl-5-(2-methylpyrazolo[1,5-a]pyrimidin-6-yl)-1H-indol-1-yl)acetyl)-N-benzyl-4-fluoropyrrolidine-2-carboxamide], for which the IC50 was under 1000 nM.

In the case of `CC(=O)c1cn(CC(=O)N2C[C@H](F)C[C@H]2C(=O)NCCc2ccccc2)c2ccc(-c3cnc4cc(C)nn4c3)cc12` [Compound 686, (2S,4R)-1-(2-(3-Acetyl-5-(2-methylpyrazolo[1,5-a]pyrimidin-6-yl)-1H-indol-1-yl)acetyl)-4-fluoro-N-phenethylpyrrolidine-2-carboxamide], the half-inhibitory concentration (IC50) was under 1000 nM.

Regarding `CC(=O)c1cn(CC(=O)N2C[C@H](F)C[C@H]2C(=O)NCCCc2ccccc2)c2ccc(-c3cnc4cc(C)nn4c3)cc12` [Compound 687, (2S,4R)-1-(2-(3-Acetyl-5-(2-methylpyrazolo[1,5-a]pyrimidin-6-yl)-1H-indol-1-yl)acetyl)-4-fluoro-N-(3-phenylpropyl)pyrrolidine-2-carboxamide], the IC50 is under 1000 nM.

As to `CC(=O)c1cn(CC(=O)N2C[C@H](F)C[C@H]2C(=O)NCCCCc2ccccc2)c2ccc(-c3cnc4cc(C)nn4c3)cc12` [Compound 688, (2S,4R)-1-(2-(3-Acetyl-5-(2-methylpyrazolo[1,5-a]pyrimidin-6-yl)-1H-indol-1-yl)acetyl)-4-fluoro-N-(4-phenylbutyl)pyrrolidine-2-carboxamide], the IC50 is under 1000 nM.

As to `CC(=O)c1nn(CC(=O)N2C[C@H](F)C[C@H]2C(=O)Nc2cccc(Br)n2)c2ccc(-c3cnn4c3CCC4)cc12` [Compound 693, (2S,4R)-1-(2-(3-Acetyl-5-(5,6-dihydro-4H-pyrrolo[1,2-b]pyrazol-3-yl)-1H-indazol-1-yl)acetyl)-N-(6-bromopyridin-2-yl)-4-fluoropyrrolidine-2-carboxamide], the IC50 was under 1000 nM.

In the case of `Cc1cccc(NC(=O)[C@@H]2[C@H]3CC[C@H](C3)N2C(=O)Cn2cc(C(N)=O)c3cc(-c4cnc5ncccn45)ccc32)n1` [Compound 695, 5-(Imidazo[1,2-a]pyrimidin-3-yl)-1-(2-((1R,3S,4S)-3-(6-methylpyridin-2-ylcarbamoyl)-2-azabicyclo[2.2.1]heptan-2-yl)-2-oxoethyl)-1H-indole-3-carboxamide], the IC50 is over 10000 nM.

For the compound `CC(=O)c1nn(CC(=O)N2C[C@H](F)C[C@H]2C(=O)Nc2cccc(Br)n2)c2ccc(-c3cnn(-c4ncccn4)c3)cc12` [Compound 696, (2S,4R)-1-(2-(3-Acetyl-5-(1-(pyrimidin-2-yl)-1H-pyrazol-4-yl)-1H-indazol-1-yl)acetyl)-N-(6-bromopyridin-2-yl)-4-fluoropyrrolidine-2-carboxamide], the IC50 is under 1000 nM.

Regarding `Cc1cccc(NC(=O)[C@@H]2[C@H]3CC[C@H](C3)N2C(=O)Cn2cc(C(N)=O)c3cc(-c4cnc5n4CCCC5)ccc32)n1` [Compound 698, 1-(2-((1R,3S,4S)-3-(6-Methylpyridin-2-ylcarbamoyl)-2-azabicyclo[2.2.1]heptan-2-yl)-2-oxoethyl)-5-(5,6,7,8-tetrahydroimidazo[1,2-a]pyridin-3-yl)-1H-indole-3-carboxamide], the IC50 is over 10000 nM.

`CC(=O)c1nn(CC(=O)N2C[C@H](F)C[C@H]2C(=O)Nc2cccc(Br)n2)c2ccc(-c3cnn(-c4ncc(F)cn4)c3)cc12` [Compound 699, (2S,4R)-1-(2-(3-Acetyl-5-(1-(5-fluoropyrimidin-2-yl)-1H-pyrazol-4-yl)-1H-indazol-1-yl)acetyl)-N-(6-bromopyridin-2-yl)-4-fluoropyrrolidine-2-carboxamide]: the IC50 is under 1000 nM.

For the compound `CC(=O)c1cn(CCN2C[C@H](F)C[C@H]2C(=O)Nc2cccc(OC(F)(F)F)c2F)c2ccc(-c3cnc4cc(C)nn4c3)cc12` [Compound 701, (2S,4R)-1-(2-(3-Acetyl-5-(2-methylpyrazolo[1,5-a]pyrimidin-6-yl)-1H-indol-1-yl)ethyl)-4-fluoro-N-(2-fluoro-3-(trifluoromethoxy)phenyl)pyrrolidine-2-carboxamide], the IC50 was over 10000 nM.

For `CC(=O)c1nn(CC(=O)N2C[C@H](F)C[C@H]2C(=O)Nc2cccc(Br)n2)c2ccc(-c3cnc(=O)n(C)c3)cc12` [Compound 702, (2S,4R)-1-(2-(3-Acetyl-5-(1-methyl-2-oxo-1,2-dihydropyrimidin-5-yl)-1H-indazol-1-yl)acetyl)-N-(6-bromopyridin-2-yl)-4-fluoropyrrolidine-2-carboxamide], the IC50 was under 1000 nM.

Turning to `CC(=O)c1nn(CC(=O)N2CC[C@H]2C(=O)Nc2cccc(C)n2)c2ccc(-c3cnc4n3CCCC4)cc12` [Compound 705, (S)-1-(2-(3-Acetyl-5-(5,6,7,8-tetrahydroimidazo[1,2-a]pyridin-3-yl)-1H-indazol-1-yl)acetyl)-N-(6-methylpyridin-2-yl)azetidine-2-carboxamide], the IC50 is over 10000 nM.

For the compound `CC(=O)c1nn(CC(=O)N2C[C@H](F)C[C@H]2C(=O)Nc2cccc(Br)n2)c2ccc(-c3cnn(C4CC4)c3)cc12` [Compound 706, (2S,4R)-1-(2-(3-Acetyl-5-(1-cyclopropyl-1H-pyrazol-4-yl)-1H-indazol-1-yl)acetyl)-N-(6-bromopyridin-2-yl)-4-fluoropyrrolidine-2-carboxamide], the IC50 was under 1000 nM.

For the compound `CC(=O)c1nn(CC(=O)N2C[C@H](F)C[C@H]2C(=O)Nc2cccc(Br)n2)c2ccc(-c3cn[nH]c3)cc12` [Compound 707, (2S,4R)-1-(2-(3-acetyl-5-(1H-pyrazol-4-yl)-1H-indazol-1-yl)acetyl)-N-(6-bromopyridin-2-yl)-4-fluoropyrrolidine-2-carboxamide], the IC50 was under 1000 nM.

As to `CC(=O)c1nn(CC(=O)N2CCC[C@H]2C(=O)Nc2cccc(C)n2)c2ccc(-c3cnc4ncccn34)cc12` [Compound 708, (S)-1-(2-(3-Acetyl-5-(imidazo[1,2-a]pyrimidin-3-yl)-1H-indazol-1-yl)acetyl)-N-(6-methylpyridin-2-yl)pyrrolidine-2-carboxamide], the 50% inhibitory concentration (IC50) was under 1000 nM.

With `CC(=O)c1nn(CC(=O)N2CC[C@H]2C(=O)Nc2cccc(C)n2)c2ccc(-c3cnc4ncccn34)cc12` [Compound 709, (S)-1-(2-(3-Acetyl-5-(imidazo[1,2-a]pyrimidin-3-yl)-1H-indazol-1-yl)acetyl)-N-(6-methylpyridin-2-yl)azetidine-2-carboxamide], the IC50 was under 1000 nM.
